Measured values: patent publication EP2561886A1, “Peptide adjuvant for improved peripheral analgesia” (Forschungsverbund Berlin e.V., priority 2011, dated 2013)
No end group written: not given here. TAMRA = 5(6)-carboxytetramethylrhodamine

What was measured:
Caco-2 cell monolayers [1] = assay: Paracellular permeability (permeation coefficient of FD-10 and Lucifer Yellow) of Caco-2 cell monolayers; format: cell-based, human; design: key to Paracellular Permeability: ↑ : increase; -: no change; conditions: for permeation of FD-10: FD-10 (10 kDa); for permeation of FD-10 / permeation of Lucifer Yellow: 48 h after peptide administration; for permeation of Lucifer Yellow: Lucifer Yellow (0.4 kDa); for Paracellular Permeability: summary table of claudin-derived peptides
Description: (§1) Measurements of Transcellular Electrical Resistance (TER) and Paracellular Permeability. 24-well transwell filters (Millicell-CM, Millipore, Eschborn, Germany) were coated with rat tail collagen (250 µg/cm^2) for 16 h, washed twice with PBS (phosphate buffer saline) and preincubated with DMEM (600 µl basolateral, 400 µl apical for Endohm electrodes and 400 µl basolateral, 500 µl apical for the cellZscope system (nanoAnalytics GmbH, Münster, Germany)) for 24 h. Caco-2 cells (200.000 cell/cm^2) were seeded into the filters and grown to high-resistance TER (> 500 Ω/cm^2) for approx. 4 days. Medium was changed every day.
The permeation studies were performed by addition of 25 µg/ml Lucifer Yellow (0.4 kDa) or FD-10 (fluorescein isothiocyanate-dextran, 10 kDa) in HBSS (Hank's balanced salt solution buffer) on the apical side and HBSS alone on the basolateral side. After 10 min, 100 µl probes were removed from the basolateral side and the fluorescence units were measured by a fluorescence plate reader (Tecan, Crailsheim, Germany) to calculate the PCoeff (permeation coefficient, cm/s). The obtained data were analyzed with GraphPad Prism 3.0 program (GraphPad Software, San Diego, USA).

claudin-1 [2] = biological target: T1, claudin-1 (Homo sapiens, UniProt O95832); assay: Immunocytochemistry of claudin-1 and ZO-1 in Caco-2 cell monolayers; format: cell-based; conditions: 300 µM, 24 and 48 h after treatment
T1 construct: Caco-2 cells express several TJ proteins; endogenous in cells; host or cells: Caco-2
T1 sequence (O95832 1-211): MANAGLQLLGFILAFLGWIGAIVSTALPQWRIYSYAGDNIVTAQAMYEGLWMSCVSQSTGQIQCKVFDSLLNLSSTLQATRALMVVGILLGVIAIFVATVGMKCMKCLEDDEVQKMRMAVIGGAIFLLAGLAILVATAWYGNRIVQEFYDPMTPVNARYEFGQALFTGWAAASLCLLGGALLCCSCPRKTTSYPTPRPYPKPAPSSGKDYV
Description: Immunocytochemistry. Immunocytochemistry was performed as previously described (46). Caco-2 cells were transferred into 6-well plates containing collagen-coated cover-slips and grown to 60-70% confluence before use. Cells were treated with C1C2 (300 µM) as well as the control treated without peptide for 24 and 48 h, respectively. The medium was changed, followed by incubation with rabbit anti-claudin-1 and rabbit anti-ZO-1 (zonula occludens protein) antibodies and incubated with Alexa-Fluor 488-conjugated goat anti-rabbit secondary antibody. Cells were analyzed with the confocal microscope.

Caco-2 cell monolayers [3] = assay: Transcellular electrical resistance (TER) of Caco-2 cell monolayers; format: cell-based, human; conditions: for transcellular electrical resistance (TER): 300 µM
Description: as §1
The experiments were performed as followed: After reaching high and stable TER values, cell monolayers were treated with peptides as described above. Control cells were incubated with respective medium. The TER values were measured at distinct time intervals. For re-arrangement of the monolayer, C1C2 was removed from the Caco-2 cells by exchange of the medium.

claudin-1 [4] = biological target: T2, claudin-1 (Rattus norvegicus, UniProt P56745); assay: Immunohistochemistry of claudin-1 in the sciatic nerve after perineurial injection; format: in vivo; conditions: 400 µM perineurial injection, after 24 h
T2 construct: from tissue; host or cells: sciatic nerve (perineurium) of male Wistar rats
T2 sequence (P56745 1-211): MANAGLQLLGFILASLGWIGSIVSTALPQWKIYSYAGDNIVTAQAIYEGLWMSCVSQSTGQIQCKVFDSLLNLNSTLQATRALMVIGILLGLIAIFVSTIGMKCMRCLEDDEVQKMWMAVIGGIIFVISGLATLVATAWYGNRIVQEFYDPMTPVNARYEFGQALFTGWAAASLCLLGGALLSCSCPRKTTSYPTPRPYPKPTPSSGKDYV
Description: (§2) Perineurial Injection at the Sciatic Nerve. Nociceptive inputs from the rat hind paw travels through the sciatic nerve. Under brief isoflurane anesthesia, the right sciatic nerve was located using a 22 G needle connected to a nerve stimulator (Stimuplex Dig RC; Braun, Melsungen, Germany) as previously described (45). The needle was advanced to the point of maximal stimulation at 0.2 mA. 300 µl of the indicated substances was injected. If more than one injection within half hour was necessary the total injected volume was maintained at 300 µl.
(§3) Peptides were dissolved in 0.9% NaCl and injected perineurially in the indicated concentrations. Measurements (nociceptive thresholds, tissue harvest for Western blot or immunohistochemistry) were undertaken 24-96 h after peptide injection.
The sciatic nerve was embedded in tissue-Tek compound (O.C.T., Miles Inc. Elkhart, Indiana) for claudin-1 staining. Sections (7-10 µm) were mounted onto gelatin-coated slides. Sections were fixed with acetone for 10 min at 4°C, washed in 0.01 M PBS (pH 7.4) for 10 min, incubated for 120 min in PBS containing 1% Triton X-100, washed in 0.01 M PBS and incubated for 30 min in 3% bovine serum albumin plus 1% normal goat serum blocking solution to prevent nonspecific binding. […] Finally, the sections were mounted and analyzed using the laser scanning microscope (Zeiss, Jena, Germany).

claudin-1 [5] = biological target: T2, claudin-1; assay: Western blot of claudin-1 in sciatic nerve fractions after perineurial injection; format: in vivo; conditions: 400 µM perineurial injection
Description: as §2, §3
Western Blot Analysis. […] Extracted protein was diluted in lysis buffer and quantified using the BCA protein assay reagent (Pierce, Rockford, IL, USA) and a plate reader (Tecan, Grödig, Austria). […] Proteins were detected using specific antibodies against claudin-1 (Invitrogen, Carlsbad, CA, USA) and as protein loading control […]-actin (Sigma Aldrich, Taufkirchen, Germany), respectively. Visualization was done by luminescence.

[6] = test system: perineurium of the sciatic nerve; assay: Mechanical nociceptive thresholds (paw pressure threshold, modified Randall-Selitto test) after perineurial injection at the sciatic nerve; format: in vivo, Male Wistar rats; conditions: for Mechanical nociceptive thresholds (PPT) after injection of TTX: 10 µM TTX perineurially after peptide pretreatment (C1C2: 24-48 h); for mechanical nociceptive thresholds before the injection of DAMGO (Baseline) / mechanical nociceptive thresholds in contralateral paws: 400 µM peptide perineurially; for mechanical nociceptive thresholds in contralateral paws: contralateral paw
Excerpt: Animals. Animal protocols were approved by the animal care committee of the Regierung von Unterfranken and are in accordance with the International Association for the Study of Pain (44). Male Wistar rats weighing 180-220 g were used.
as §2, §3
Measurements of Nociceptive Thresholds. Mechanical thresholds were determined using the paw pressure algesiometer (modified Randall-Selitto test; Ugo Basile, Comerio, Italy) as described before (47). The pressure required to elicit paw withdrawal, the paw pressure threshold (PPT), was determined in blinded experiments. Averages were calculated from three measurements each. An increase in PPT was interpreted as antinociception (analgesia), a decrease in PPT was interpreted as hyperalgesia (pain). Measurements were taken 10-60 min after injection of 100 µl containing 30 µg DAMGO or 10 µM TTX. The optimal doses of DAMGO or TTX have been evaluated in pilot studies (data not shown), but are similar to doses used for intraplantar injection in rats.

wild type HEK-293 cells = assay: Confocal microscopy of peptide internalization in wild type HEK-293 cells; format: cell-based, human; conditions: 40 µM, 24 h
Description: (§4) Cell Culture. Caco-2 (colorectal adenocarcinoma) cells (41) were grown in a humidified atmosphere at 37 °C and 10% CO2, whereas HEK-293 (human embryonic kidney) cells (42) and HEK-293 cells stably transfected with claudin-1-YFP (yellow fluorescence protein) (43) were grown at 37 °C and 5% CO2. Cells were cultured in DMEM (Dulbecco's modified Eagle's medium) containing 10% fetal calf serum, 100 units/ml penicillin, 100 µg/ml streptomycin, and 1% L-analyl-L-glutamine.
(§5) Confocal Microscopy. HEK-293 cells and stably claudin-1-YFP expressing HEK-293 cells were transferred into 6-well plates containing collagen-coated cover-slips as described above and grown to 60-70% confluence. Then, cells were treated with the TAMRA-labeled peptide (40 µM) for 15 min, 35 min, and 24 h, respectively. Pluronic ®F-68 (0.0012%) was added as solution enhancer. After removing of the peptide, cells were analyzed with the LSM 510 Meta confocal microscope (Zeiss, Jena, Germany).

[7] = test system: HEK-293 cells stably transfected with claudin-1-YFP; assay: Confocal microscopy of peptide internalization in claudin-1-YFP expressing HEK-293 cells; format: cell-based, human; conditions: 40 µM
Description: as §4, §5

SSVSQSTGQIQSKVFDSLLNLNSTLQATR-NH2 [Peptide C1C2, 29 amino acid peptide derived from the C-terminal part of the ECL1 of rat claudin-1, Cys54/Cys64 substituted by serines, C-terminally amidated]
permeation of FD-10 (Caco-2 cell monolayers [1]): increased
permeation of Lucifer Yellow (Caco-2 cell monolayers [1]): increased
Paracellular Permeability (Caco-2 cell monolayers [1]): ↑
membrane-localized claudin-1 (claudin-1 [2]): clear decrease
transcellular electrical resistance (TER) (Caco-2 cell monolayers [3]; apical treatment): significant reduction of the TER, but less efficient then the bilateral treatment
TER (Caco-2 cell monolayers [3]; bilateral application of 100, 200, and 300 µM): Time- and concentration-dependent reduction
transcellular electrical resistance (TER) (Caco-2 cell monolayers [3]; bilateral treatment, 24 h): significant reduction
recovery of the cell monolayer (barrier integrity) after removing peptide (Caco-2 cell monolayers [3]; peptide removed at 48 h, read 24 h later, i.e. after 72 h): Complete recovery
claudin-1 immunoreactivity in the perineurium (claudin-1 [4]): decreased
claudin-1 protein expression in the membrane (claudin-1 [5]; 24 h and 48 h, membrane fraction): decreased
claudin-1 protein expression in the cytosol (claudin-1 [5]; cytosol fraction): No change
Mechanical nociceptive thresholds (PPT) after injection of TTX [6]: enhanced the effect of TTX
mechanical nociceptive thresholds before the injection of DAMGO (Baseline) ([6]; 0 h): 77.67 ± 1.8 g
mechanical nociceptive thresholds before the injection of DAMGO (Baseline) ([6]; 24 h): 74.67 ± 3.00 g
mechanical nociceptive thresholds before the injection of DAMGO (Baseline) ([6]; 48 h): 68.0 ± 2.02 g
mechanical nociceptive thresholds before the injection of DAMGO (Baseline) ([6]; 72 h): 69.00 ± 1.861 g
mechanical nociceptive thresholds before the injection of DAMGO (Baseline) ([6]; 96 h): 73.3 ± 2.87 g
mechanical nociceptive thresholds in contralateral paws ([6]; 0 h): 77.33 ± 1.3 g
mechanical nociceptive thresholds in contralateral paws ([6]; 24 h): 63.33 ± 2.36 g
mechanical nociceptive thresholds in contralateral paws ([6]; 48 h): 67.67 ± 2.03 g
mechanical nociceptive thresholds in contralateral paws ([6]; 72 h): 65.0 ± 1.25 g
mechanical nociceptive thresholds in contralateral paws ([6]; 96 h): 67.67 ± 2.09 g
mechanical nociceptive thresholds (PPT) after DAMGO ([6]; 24 h after perineurial 100 µM peptide, 10 min after 30 µg DAMGO): increase
PPT after DAMGO ([6]; 48 h after perineurial 400 µM peptide, 10 min after 30 µg DAMGO): Significant increases

TAMRA-SSVSQSTGQIQSKVFDSLLNLNSTLQATR-NH2 ({TAMRA}-SSVSQSTGQIQSKVFDSLLNLNSTLQATR-NH2) [TAMRA-C1C2, C1C2 N-terminally labeled with TAMRA (5(6)-carboxytetramethylrhodamine)]
Paracellular Permeability (Caco-2 cell monolayers [1]): ↑
internalization (wild type HEK-293 cells): weak unspecific internalization
intracellular co-localization with claudin-1-YFP [7]: mainly co-localized
membrane-localized claudin-1-YFP ([7]; 24 h after treatment): decrease
internalization ([7]; 15 min, 35 min, 24 h): internalized

ESATHSTGITQSDIYSTLLGLPADIQAAQ-NH2 [Peptide C2C2, peptide from the C-terminal part of the ECL1 of rat claudin-2, same modifications as C1C2, applied as negative control, reference compound]
permeation of FD-10 (Caco-2 cell monolayers [1]): did not influence
permeation of Lucifer Yellow (Caco-2 cell monolayers [1]): did not influence
transcellular electrical resistance (TER) (Caco-2 cell monolayers [3]; bilateral treatment, 24 h): unaffected
Mechanical nociceptive thresholds (PPT) after injection of TTX [6]: unchanged
Mechanical nociceptive thresholds (paw pressure threshold, PPT) after injection of DAMGO ([6]; DAMGO perisciatic 0-4 d after perineurial peptide (400 µM)): unchanged
